The structures appear in SMILES notation.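 Briefly, cells in 96-well plates were exposed to five compound concentrations for 48 h, and endpoints were estimated by linear interpolation. GI50 is the concentration that inhibits growth by half.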 Activity calls are given as the source filed them. Rule as the data show it: active = GI50 up to about 1.1 µM and inactive = higher.

Test systems include SK-MEL-5; 786-0; SK-MEL-28; SF-295; MDA-N; SK-MEL-2; RXF 393; MOLT-4; MDA-MB-231; MCF7; UO-31; COLO 205; ACHN; HCT-15; HCC 2998; SW-620; DU-145; UACC-62; IGROV-1.
Test in all cases: NCI-60 cell line screen, 48 h

On to `O=C(c1cc(Cl)cc(Cl)c1)N(C(=O)N1CCN(c2ccccc2)CC1)c1ccccc1`, for which the GI50 in the test on SK-MEL-5 is 21.6 µM (inactive); in the test with 786-0, 43.1 µM (inactive); in the test with SK-MEL-28, 56.1 µM (inactive); in the test with SF-295, 37.2 µM (inactive); in the test with MDA-N, 12.7 µM (inactive); with SK-MEL-2, 24.8 µM (inactive). For the same molecule, the GI50 in the test on RXF 393 is 37 µM (inactive); in the test with MOLT-4, 20.1 µM (inactive); in the test with MDA-MB-231, 52.1 µM (inactive); in the test on MCF7 it was 29.9 µM (inactive); with UO-31, 18.7 µM (inactive); in the test with COLO 205 it was 17.3 µM (inactive). Besides, the GI50 in the test on ACHN was 72.9 µM (inactive); in the test with HCT-15, 17 µM; with HCC 2998, 51.9 µM (inactive); with SW-620 it was 30.3 µM (inactive); in the test on DU-145, 80.9 µM (inactive); in the test with UACC-62 it was 24.9 µM (inactive).
Regarding `CC1(C)C(CCO)CC1n1ccc(=O)[nH]c1=O` (stereo not given), the GI50 with SK-MEL-5, in the test with 786-0, with SK-MEL-28, with SF-295, in the test on MDA-N and with SK-MEL-2 was > 100 µM (inactive) each time. For the same molecule, the GI50 with RXF 393 is > 100 µM (inactive); in the test on MDA-MB-231, > 100 µM (inactive); in the test on MCF7, > 100 µM (inactive); in the test on UO-31 it was > 100 µM (inactive); in the test with ACHN, > 100 µM (inactive); in the test with HCT-15, more than 100 µM. The GI50 in the test on HCC 2998, with SW-620, in the test with DU-145 and with UACC-62 was > 100 µM (inactive) in each case.
Take `CC1OC2=N[C@@H]1C(=O)N[C@@H](C(C)C)C1=N[C@H](C(=O)N[C@@H](C(C)C)C3=N[C@H](C(=O)N[C@@H](C(C)C)C4=N[C@H](C(=O)N[C@H]2C(C)C)C(C)O4)C(C)O3)C(C)O1` (stereo not given in full): the GI50 in the test on SK-MEL-5, with 786-0, in the test on SK-MEL-28, with SF-295, in the test on MDA-N and with IGROV-1 was > 10 µM (inactive) in each case. Moreover, the GI50 with SK-MEL-2, in the test with RXF 393, in the test with MOLT-4, in the test on MDA-MB-231, in the test with MCF7 and in the test on UO-31 was > 10 µM (inactive) each time. In addition, the GI50 in the test with COLO 205 was > 10 µM (inactive); with ACHN it was > 10 µM (inactive); in the test on HCT-15 it was more than 10 µM; with HCC 2998, > 10 µM (inactive); with SW-620, > 10 µM (inactive); with DU-145, > 10 µM (inactive).
Take `O=C(O)c1ccccc1CC(Cc1ccc2c(c1)CCC2)C(=O)O` (stereo not given): the GI50 with SK-MEL-5, in the test with 786-0, in the test with SK-MEL-28, in the test on SF-295, in the test on MDA-N and in the test with IGROV-1 was > 100 µM (inactive) in each case. The GI50 in the test with SK-MEL-2, in the test on RXF 393, in the test on MOLT-4, with MDA-MB-231, with MCF7 and in the test on UO-31 was > 100 µM (inactive) in each case. The GI50 in the test with COLO 205 is > 100 µM (inactive); in the test on ACHN, > 100 µM (inactive); with HCT-15, more than 100 µM; in the test with HCC 2998 it was > 100 µM (inactive); in the test with SW-620, > 100 µM (inactive); in the test on DU-145, > 100 µM (inactive).
Turning to `c1cncc(-c2ncc3cccnc3n2)c1`, the GI50 with SK-MEL-5, with 786-0, in the test with SF-295, in the test on MDA-N, with IGROV-1 and in the test on SK-MEL-2 was > 100 µM (inactive) throughout. For the same molecule, the GI50 with RXF 393, in the test with MOLT-4, in the test with MDA-MB-231, with MCF7, in the test on UO-31 and in the test with COLO 205 was > 100 µM (inactive) each time. The GI50 in the test with ACHN was > 100 µM (inactive); in the test on HCT-15 it was more than 100 µM; in the test with HCC 2998, > 100 µM (inactive); in the test with SW-620 it was > 100 µM (inactive); in the test on DU-145 it was 43.4 µM (inactive); with UACC-62, > 100 µM (inactive).
Turning to `CCOC(=O)c1cc2c3c(cc(OC)c2[nH]1)N(C(=O)OCC)CC3`, the GI50 in the test with SK-MEL-5, in the test on 786-0, with SK-MEL-28, in the test on SF-295, in the test with MDA-N and with IGROV-1 was > 100 µM (inactive) in each case. The GI50 in the test with SK-MEL-2, with RXF 393, in the test with MOLT-4, in the test on MDA-MB-231, in the test on MCF7 and in the test with UO-31 was > 100 µM (inactive) throughout. Further, the GI50 in the test on COLO 205 was > 100 µM (inactive); with HCT-15, more than 100 µM; with HCC 2998 it was > 100 µM (inactive); with SW-620, > 100 µM (inactive); in the test with DU-145 it was > 100 µM (inactive); in the test on UACC-62 it was > 100 µM (inactive).
As to `Cc1ccc(SC(=O)N2C(=S)N=C(NC3CCCCC3)C23CCCCC3)cc1`, the GI50 with SK-MEL-5 is > 100 µM (inactive); in the test with 786-0, > 100 µM (inactive); in the test with SK-MEL-28 it was > 100 µM (inactive); in the test with SF-295, > 100 µM (inactive); in the test with MDA-N, > 100 µM (inactive); with IGROV-1 it was 36.1 µM (inactive). Moreover, the GI50 was > 100 µM (inactive) with SK-MEL-2; 70 µM (inactive) with RXF 393; > 100 µM (inactive) in the test with MDA-MB-231; 51.2 µM (inactive) in the test on MCF7; 46.6 µM (inactive) with UO-31; 43.4 µM (inactive) in the test with COLO 205. Also, the GI50 with ACHN is 80 µM (inactive); in the test with HCT-15 it was 87.9 µM; in the test with HCC 2998 it was > 100 µM (inactive); in the test on SW-620, > 100 µM (inactive); in the test with DU-145 it was > 100 µM (inactive); in the test with UACC-62, > 100 µM (inactive).
For `Nc1ccc2c3c1cccc3c(=O)n1c3ccc(Cc4ccc5c(c4)nc4c6ccc(N)c7cccc(c(=O)n54)c76)cc3nc21`, the GI50 in the test with SK-MEL-5, in the test on 786-0, with SK-MEL-28, with SF-295, with MDA-N and in the test with IGROV-1 was > 100 µM (inactive) in each case. Further, the GI50 with SK-MEL-2, with RXF 393, in the test on MOLT-4, in the test on MDA-MB-231, with MCF7 and in the test with UO-31 was > 100 µM (inactive) in each case. In addition, the GI50 in the test on COLO 205, in the test on ACHN, in the test on HCC 2998, in the test on SW-620, in the test with DU-145 and with UACC-62 was > 100 µM (inactive) throughout.
Consider `N#C/N=C(/N)c1sc2nc3c(c(-c4ccc(Br)cc4)c2c1N)CCCC3`, for which the GI50 in the test with SK-MEL-5 is 4.37 µM (inactive); in the test on 786-0 it was 15.7 µM (inactive); with SK-MEL-28, 32.9 µM (inactive); in the test with SF-295, 11.1 µM (inactive); in the test with MDA-N it was 3.42 µM (inactive); in the test with SK-MEL-2 it was 13.2 µM (inactive). The GI50 is 17.7 µM (inactive) in the test on RXF 393; 11.7 µM (inactive) in the test on MOLT-4; 20.6 µM (inactive) in the test on MDA-MB-231; 18.5 µM (inactive) with MCF7; 19.9 µM (inactive) in the test on UO-31; 14.4 µM (inactive) in the test with COLO 205. Moreover, the GI50 is 20.6 µM (inactive) in the test on ACHN; 10.2 µM in the test with HCT-15; 22.1 µM (inactive) with HCC 2998; 43.7 µM (inactive) in the test with SW-620; 21 µM (inactive) in the test with DU-145; 13.9 µM (inactive) in the test with UACC-62.
Regarding `O=C(Nc1nn(C(=O)c2cccnc2)c(=O)s1)c1ccc(Cl)cc1`, the GI50 was 31.4 µM (inactive) in the test on SK-MEL-5; > 100 µM (inactive) in the test with 786-0; > 100 µM (inactive) in the test with SK-MEL-28; 46.3 µM (inactive) in the test with SF-295; > 100 µM (inactive) in the test with MDA-N; > 100 µM (inactive) with SK-MEL-2. Besides, the GI50 with RXF 393 is 15.6 µM (inactive); in the test with MOLT-4, 28.1 µM (inactive); with MDA-MB-231 it was > 100 µM (inactive); in the test on MCF7, 77.3 µM (inactive); with UO-31, 1.8 µM (inactive); in the test with COLO 205, 40.6 µM (inactive). The GI50 in the test on ACHN was > 100 µM (inactive); with HCT-15 it was 80.4 µM; with HCC 2998, > 100 µM (inactive); in the test with SW-620, > 100 µM (inactive); in the test with DU-145, 85.9 µM (inactive); with UACC-62, > 100 µM (inactive).
With `Cc1cc2c(cc1Cl)SC(c1ccccc1)C(=O)NS2(=O)=O` (stereo not given), the GI50 was 21.6 µM (inactive) with SK-MEL-5; 31.6 µM (inactive) with 786-0; 34.8 µM (inactive) in the test with SK-MEL-28; 28.3 µM (inactive) with SF-295; 34.1 µM (inactive) in the test on MDA-N; 40.8 µM (inactive) in the test on IGROV-1. The GI50 in the test on SK-MEL-2 was 17.3 µM (inactive); in the test on RXF 393, 31.4 µM (inactive); in the test on MOLT-4, 26 µM (inactive); in the test with MDA-MB-231 it was 32.3 µM (inactive); in the test with MCF7, 34 µM (inactive); in the test with UO-31, 28.1 µM (inactive). Moreover, the GI50 with ACHN was 36.7 µM (inactive); in the test with HCT-15 it was 25 µM; with HCC 2998 it was 30.3 µM (inactive); in the test with SW-620 it was 40 µM (inactive); in the test on DU-145, 34.9 µM (inactive).

Source of the values: ChEMBL document CHEMBL1201862, “PubChem BioAssay data set” (2004).
